Legend:
[1] = In vitro drug release from antibiotic-encapsulated PLGA microparticles; assay type: physicochemical; conditions: drug encapsulated in free PLGA (50:50) microparticles; buffer, 37° C., 120 rpm
Protocol: The amount of antibiotic was determined by dissolving 20 mg beads in 1 mL NaOH 1 M at 37° C. After complete dissolution, 1 mL of HCl 1 M was added to neutralize the pH. […] A mixture of NaOH 1 M and HCl 1 M (1:1) was used as a blank.
The gentamicin concentration was determined by a colormetric assay: 0.5 mL of the gentamicin solution was mixed with 0.35 mL of sodium phosphate buffer (50 mM, pH 7.4) and 0.15 mL of 1.25% ninhydrin solution. The reaction occurred at 95° C. for 15 minutes and the tubes were then cooled in an ice-water bath for 10 min. The UV-visible spectra over the wavelength range of 200-700 nm were measured using the mixture of ninhydrin and the respective buffer solution at the appropriate concentrations as the blanks. The gentamicin concentration was calculated at the maximal absorbance (λmax˜315 nm).
The microspheres (25 mg of ciprofloxacin-encapsulated PLGA beads, 80 mg of gentamicin encapsulated PLGA beads, 40 mg of vancomycin-encapsulated PLGA beads) were placed into glass vials filled with 10 mL solution (PBS for vancomycin and ciprofloxacin-encapsulated PLGA beads and sodium phosphate buffer for gentamicin encapsulated PLGA beads). The vials were placed in an orbital shaker incubator at 37° C., where they were shaken at 120 rpm. […] Finally, the 1.5 mL of suspension were returned back into the glass vials. For gentamicin, the reaction with ninhydrin is irreversible. 0.5 ml, of the solution was replaced each day with fresh sodium phosphate buffer to maintain a constant volume.

[2] = test system: Bacillus subtilis (ATCC 6633); assay: Agar disk-diffusion (Kirby-Bauer) assay of crosslinked gelatin discs containing antibiotic PLGA beads; assay type: cell-based; conditions: crosslinked gelatin hydrogel containing drug-loaded PLGA MPs; gels incubated in saline for 14 days
Protocol: (§1) The bacteria used was Bacillus subtilis, which serves as a model microorganism for gram positive bacteria.
3 discs of 0.2 gr crosslinked gelatin containing 2% vancomycin-gentamicin-encapsulated PLGA beads were casted as previously reported 3 additional discs without beads were also casted and used as negative control. Filters containing 30 μg antibiotics (gentamicin or vancomycin) were used as positive controls.
The gel discs with and without beads and the filter containing antibiotics were placed in LB agar plates on which 100 μl of bacterium suspension had been evenly spread. The petri dishes were placed in an orbital shaker incubator at 37° C. where a horizontal shake was performed at 120 rpm.

[3] = test system: Bacillus subtilis (ATCC 6633); assay: Microdilution assay of hydrogel disc extracts versus MIC; assay type: cell-based; conditions: extracts of crosslinked gelatin hydrogel containing 2% drug-loaded PLGA beads; throughout the study (1-14 days)
Protocol: as §1
6 discs of 0.2 gr crosslinked gelatin containing 2% vancomycin/gentamicin-encapsulated PLGA beads were casted in plastic mold of 12 mm diameter. After […] of curing at 37° C., the gels were separately placed in glass vial filled with 1.5 mL sodium phosphate buffer. The vials were placed in an incubator at 37° C. After 1, 2, 4, 7, 11 and 14 days, the gel was taken out and the hydrogel extract was frozen until test.
The antibacterial activity of the hydrogel discs extracts was studied by employing a microdilution method (FIG. 3b). Plates were prepared under sterile conditions. 100 μL of test materials were pipetted into the first column of the sterile 96-well plate. To all other wells 50 μL of saline was added. Serial dilutions were performed using a multichannel pipette. Tips were discarded after use such that each well had 50 μL of the test material in serially descending concentrations. […]
After 24 hours, the OD of each well was measured at 600 nm to determinate the presence or absence of bacterium. The lowest concentration at which […] was taken as the MIC value.

[4] = Release of ciprofloxacin from PLGA microparticles embedded in enzymatically crosslinked gelatin matrix; assay type: physicochemical
Protocol: Entrapment of microparticles in enzymatically crosslinked gelatin hydrogel was performed as follows.
This solution was mixed with 5.0 gr of gelatin solution. 0.25 gr of the mixture was cast in a glass vial, and curing occurred at 37° C. for 15 min. 5 mL of PBS was added to the vial to wash the gel. An additional 5 mL of PBS was added and the vial was placed in an orbital shaker incubator at 37° C. where it was shaken at 120 rpm. Once a day, 1.5 mL of the cured gel extract was centrifuged and 1 mL of the supernatant was taken to spectrophotometer to measure the drug concentration. After measurement, the 1.5 mL extract was returned back into the glass vials, crosslinked gelatin without beads was casted according to the same procedure and the extract was used as blank.

[5] = mixed with fibrin glue; cited from earlier work
[6] = cited from earlier work

Row | Compound | release kinetics after initial burst release [1] | bacteria killing (ring around the gel) in agar diffusion assay [2] | concentration of the eluted antibiotic drug relative to MIC [3] | further results
1 | gentamycin | zero order kinetics | still had enough drug remaining within the matrix to induce bacteria killing | considerably above MIC | –
2 | O=C(O)c1cn(C2CC2)c2cc(N3CCNCC3)c(F)cc2c1=O [ciprofloxacin] | zero order kinetics | – | – | time over which the drug eluted ([4]; PLGA MPs embedded in in situ cross-linkable gelatin matrix): 2 weeks; release rate of MPs embedded in gelatin matrix compared to free MPs ([4]; PLGA MPs embedded in in situ enzymatically crosslinked gelatin, PBS, 37° C.): somewhat slower
3 | Cc1nnc(SCC2=C(C(=O)O)N3C(=O)[C@@H](NC(=O)Cn4cnnn4)[C@H]3SC2)s1 [cefazolin] | – | – | – | release time [5]: 2 days
4 | CN[C@H](CC(C)C)C(=O)N[C@H]1C(=O)N[C@@H](CC(N)=O)C(=O)N[C@H]2C(=O)N[C@H]3C(=O)N[C@H](C(=O)N[C@H](C(=O)O)c4cc(O)cc(O)c4-c4cc3ccc4O)[C@H](O)c3ccc(c(Cl)c3)Oc3cc2cc(c3O[C@@H]2O[C@H](CO)[C@@H](O)[C@H](O)[C@H]2O[C@H]2C[C@](C)(N)[C@H](O)[C@H](C)O2)Oc2ccc(cc2Cl)[C@H]1O [vancomycin] | zero order kinetics | still had enough drug remaining within the matrix to induce bacteria killing | considerably above MIC | –
5 | CCOC(=O)c1ccc(N)cc1 [Benzocaine] | – | – | – | water solubility [6]: very low

Source: patent US20220331492A1, “COMPOSITION AND METHOD FOR CONTROLLED DRUG RELEASE FROM A TISSUE” (Bard Shannon Limited, priority 2017, published 2022)
